Where “and” joins values, the source holds several entries; their conditions need not be identical. Equal values may be shown once.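 96-well plates; 48 h exposure; 5 concentrations. Endpoints by linear interpolation between flanking doses. Not reached: highest tested concentration assigned. The concentration for 50% growth inhibition is given as GI50. Definition used: TGI = concentration required for complete inhibition of growth.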
Experiments:
Test in all cases: growth of human tumour cells (NCI), 48 h
HT29 colon = test system: HT29 colon
IGROV1 ovarian = test system: IGROV1 ovarian
A498 renal = test system: A498 renal
NCI-H522 lung = test system: NCI-H522 lung
HOP-92 NSCLC = test system: HOP-92 NSCLC
HCT-15 colon = test system: HCT-15 colon
SN12C renal = test system: SN12C renal
NCI-H460 lung = test system: NCI-H460 lung
SF-539 CNS = test system: SF-539 CNS
UACC-62 melanoma = test system: UACC-62 melanoma

| SMILES | TGI (HT29 colon) [µM] | TGI (IGROV1 ovarian) [µM] | TGI (A498 renal) [µM] | TGI (NCI-H522 lung) | TGI (HOP-92 NSCLC) | TGI (HCT-15 colon) [µM] | TGI (SN12C renal) [µM] | TGI (NCI-H460 lung) | TGI (SF-539 CNS) [µM] | TGI (UACC-62 melanoma) | GI50 (HT29 colon) [µM] | GI50 (IGROV1 ovarian) [µM] | GI50 (A498 renal) [µM] | GI50 (NCI-H522 lung) [µM] | GI50 (HOP-92 NSCLC) | GI50 (HCT-15 colon) | GI50 (SN12C renal) [µM] | GI50 (NCI-H460 lung) [µM] | GI50 (SF-539 CNS) [µM] | GI50 (UACC-62 melanoma) [µM] |
| --- | --- | --- | --- | --- | --- | --- | --- | --- | --- | --- | --- | --- | --- | --- | --- | --- | --- | --- | --- | --- |
| O=C1C=C2CCCC2C(C(=O)O)(C(=O)O)C1 (stereo not drawn) | > 100 | > 100 | > 100 | > 100 µM | > 100 µM | > 100 | > 100 | > 100 µM | > 100 | > 100 µM |  |  |  |  |  |  |  |  |  |  |
| Cn1cc(C2=C(c3cn(CCCN)c4ccccc34)C(=O)NC2=O)c2ccccc21 | 18.4 | > 19.7 | 9.18 | 9.13 µM | 17.6 µM | > 25 | 18.6 | 11.1 µM | 6.86 | 8.05 µM | 4.74 | 8.95 | 3.92 | 4.12 | 8.26 µM | 5.14 µM | 4.67 | 5.25 | 3.44 | 4.35 |
| O=C1Cc2cc(CCn3cncn3)c(Cl)cc2N1 | > 100 | > 100 | > 100 | > 100 µM | > 100 µM | > 100 | > 100 | > 100 µM | > 100 | > 100 µM | > 100 | > 100 | 32.5 | 5.29 | 3.02 µM | 9.59 µM | > 100 | 68.6 | > 100 | 20.7 |
| CCCCCCCCCCNCCSS(=O)(=O)O | 4.79 | 17.6 | 19.9 | 4.31 µM | 25.7 µM | 17 | 3.6 | 3.22 µM | 5.21 | 3 µM | 2.21 | 4.82 | 5.48 | 2.09 | 8.84 µM | 3.97 µM | 1.86 | 1.72 | 2.31 | 1.42 |
| OC1CCCC2CCC[N-]C12.OC1CCCC2CCC[N-]C12.[O]=[V][OH] (stereo not drawn) | > 100 | 12.2 | 97.5 | 25.7 µM | > 100 µM | 12.5 | > 100 | > 100 µM | > 100 | 24.7 µM | 4.72 | 2.37 | 11.6 | 0.743 | 22.9 µM | 0.789 µM | 5.91 | 5.49 | 15.8 | 3.98 |
| N#Cc1nc(C#N)c(Sc2ccccc2)c(Sc2ccccc2)c1Sc1ccccc1 |  | 2.3 | 7.05 | 0.645 µM | 20.9 µM | 3.21 | 0.378 | > 27.6 µM | 1.31 | 3.2 µM | 0.407 | 0.732 | 2.72 | 0.208 | 2.52 µM | 0.574 µM | 0.191 | 2.35 | 0.399 | 1.37 |
| O=C1NC2(CCCCC2)C(=O)N1CCN(CCCl)CCCl | > 250 |  | > 250 | > 25 µM and 163 µM | > 25 µM and 48.3 µM | > 242 | > 250 | 25 µM and 249 µM | > 250 | > 25 µM and 242 µM | > 25 | 17.7 | > 25 | > 25 | > 25 µM and 22.9 µM | > 25 µM and 200 µM | > 25 | 15.7 | > 25 | > 25 |
| CCN(CC)CCN1c2nc3ccccc3cc2Sc2cc3ccccc3nc21 | 3.06 | 2.48 | 8.62 | 4.1 µM | 3.2 µM | 3.76 | 12.2 | 2.95 µM | 3.16 | 4.37 µM | 1.21 | 0.473 | 3.08 | 1.65 | 0.869 µM | 1.58 µM | 2.28 | 1.52 | 1.6 | 1.77 |
| COc1ccccc1[As]=[As]c1ccccc1OC (stereo not drawn) | 0.174 | 0.209 | 0.184 | 0.0376 µM | 0.228 µM | 0.118 | 0.179 | 0.334 µM | 0.144 | 0.224 µM | 0.0405 | 0.0414 | 0.0622 | 0.0165 | 0.102 µM | 0.0288 µM | 0.0489 | 0.096 | 0.0383 | 0.0663 |
| CC(=O)/C(Br)=C/c1ccc(Br)o1 | 14.6 | 29.2 | 33.7 | 8.14 µM | 23.9 µM | 16.1 | 26.7 | 30.9 µM | 10.8 | 28.3 µM | 4.21 | 10.2 | 17.4 | 2.78 | 8.63 µM | 4.2 µM | 8.11 | 14.2 | 5 | 14 |
| N#C/C(=C1\OC(=N)C(c2ccccc2)C1=O)c1ccccc1 (stereo not drawn) | 57.7 | > 80.7 | > 100 | 22.2 µM | > 71.3 µM | 60.2 | > 81.6 | > 100 µM | > 31.6 | 52.7 µM |  |  |  |  |  |  |  |  |  |  |
| CCOC(=O)c1c(C)nc2c(c1N)/C(=C/c1ccccn1)C(=O)N2Cc1ccccc1 | 3.14 | 3.47 | > 50 | 2.89 µM | 1.86 µM | 2.63 | 3.09 | 2.8 µM | 1.77 | 1.96 µM | 1.32 | 1.2 | 1.54 | 1.06 | 0.903 µM | 1.07 µM | 1.15 | 1.17 | 0.882 | 0.94 |
| O=C(NCCOCCOCCOCCNC(=O)c1cc2c(o1)C(=O)c1ccccc1C2=O)NC12CC3CC(CC(C3)C1)C2 | 6.79 | 8.53 | 3.3 | 4.95 µM | 10.7 µM | 3.68 | 2.71 | 2.93 µM | 3.16 | 1.92 µM | 2.6 | 2.11 | 1.69 | 1.78 | 3.08 µM | 1.58 µM | 1.34 | 1.19 | 1.59 | 0.571 |

From PubChem BioAssay (NCI)
